Results as given in US10519114B2, “Peptidomimetics and methods of using the same” (The Regents of the University of Michigan, priority 2016, dated 2019).

Legend:
[1] = target: T1, rat μ (C6-MOR) opioid receptor (Rattus norvegicus, UniProt P33535); experiment: Radioligand binding assay, [3H]diprenorphine displacement, MOR; settings: displacement of 0.2 nM [3H]diprenorphine, C6-MOR membranes; mean ± standard error
T1 construct: expressed in transfected cells
Method: (§1) In Vitro Pharmacology-Cell Lines and Membrane Preparations. All tissue culture reagents were purchased from Gibco Life Sciences (Grand Island, N.Y., U.S.). C6-rat glioma cells stably transfected with a rat μ (C6-MOR) or rat δ (C6-DOR) opioid receptor20 and Chinese hamster ovary (CHO) cells stably expressing a human K (CHO-KOR) opioid receptor21 were used for all in vitro assays. Cells were grown to confluence at 37° C. in 5% CO2 in Dulbecco's modified Eagle medium containing 10% fetal bovine serum and 5% penicillin/streptomycin. Membranes were prepared by washing confluent cells three times with ice cold phosphate buffered saline (0.9% NaCl, 0.61 mM Na2HPO4, 0.38 mM KH2PO4, pH 7.4). Cells were detached from the plates by incubation in warm harvesting buffer (20 mM HEPES, 150 mM NaCl, 0.68 mM EDTA, pH 7.4) and pelleted by centrifugation at 200 g for 3 min. The cell pellet was suspended in ice-cold 50 mM Tris-HCl buffer, pH 7.4, and homogenized with a Tissue Tearor (Biospec Products, Inc., Bartlesville, Okla., U.S.) for 20 s at setting 4. The homogenate was centrifuged at 20 000 g for 20 min at 4° C., and the pellet was rehomogenized in 50 mM Tris-HCl with a Tissue Tearor for 10 s at setting 2, followed by recentrifugation. The final pellet was resuspended in 50 mM Tris-HCl and frozen in aliquots at […]. Protein concentration was determined via Bradford assay using bovine serum albumin as the standard.
(§2) Radioligand Binding Assays. Radioactive compounds were purchased from Perkin-Elmer (Waltham, Mass., U.S.). Opioid ligand binding assays were performed using competitive displacement of 0.2 nM [3H]diprenorphine (250 μCi, 1.85 TBq/mmol) by the test compound from membrane preparations containing opioid receptors. The assay mixture, containing membrane suspension (20 μg protein/tube) in 50 mM Tris-HCl buffer (pH 7.4), [3H]diprenorphine, and various concentrations of test peptide, was incubated at room temperature for 1 h to allow binding to reach equilibrium. The samples were rapidly filtered through Whatman GF/C filters using a Brandel harvester (Brandel, Gaithersburg, Md., U.S.) and washed three times with 50 mM Tris-HCl buffer. The radioactivity retained on dried filters was determined by liquid scintillation counting after saturation with EcoLume liquid scintillation cocktail in a Wallac 1450 MicroBeta (Perkin-Elmer, Waltham, Mass., U.S.). Nonspecific binding was determined using 10 μM naloxone. Inhibitory constant (Ki) values were calculated using nonlinear regression analysis to fit a logistic equation to the competition data using GraphPad Prism, version 5.01, for Windows (GraphPad Software Inc., La Jolla, Calif.). The results presented are the mean±standard error from at least three separate assays performed in duplicate.

[2] = target: T2, human κ (CHO-KOR) opioid receptor (Homo sapiens, UniProt P41145); experiment: Radioligand binding assay, [3H]diprenorphine displacement, KOR; settings: displacement of 0.2 nM [3H]diprenorphine, CHO-KOR membranes; mean ± standard error
T2 construct: expressed in transfected cells
Method: as §1, §2

[3] = target: T2, human κ (CHO-KOR) opioid receptor; experiment: Stimulation of [35S]GTPγS binding, KOR; type: biochemical
Method: as §1
(§3) Stimulation of [^35S]GTPyS Binding. Agonist stimulation of [35S]guanosine 5′-O-[γ-thio]triphosphate ([^35S]GTPγS, 1250 Ci, 46.2 TBq/mmol) binding was measured as described previously Briefly, membranes (10-20 μg of protein/tube) were incubated 1 h at room temperature in GTPyS buffer (50 mM Tris-HCl, 100 mM NaCl, 5 mM MgCl2, pH 7.4) containing 0.1 nM [^35S]GTPγS, 30 μM guanosine diphosphate (GDP), and varying concentrations of test peptides. Peptide stimulation of [^35S]GTPyS was compared with 10 μM standard compounds [D-Ala^2,N-MePhe^4,Gly-ol]encephalin (DAMGO) at MOR, D-Pen^2,5-enkephalin (DPDPE) at DOR, or […] at KOR. The reaction was terminated by rapidly filtering through GF/C filters and washing 10 times with GTPyS buffer, and retained radioactivity was measured as described above. The results presented are the mean±standard error from at least three separate assays performed in duplicate; maximal stimulation was determined using nonlinear regression analysis with GraphPad Prism (GraphPad Software Inc., La Jolla, Calif.).

[4] = target: T1, rat μ (C6-MOR) opioid receptor; experiment: Stimulation of [35S]GTPγS binding, MOR; type: biochemical; settings: for EC50: [35S]GTPγS binding, C6-MOR membranes, mean ± standard error; for Emax: [35S]GTPγS maximal stimulation compared with 10 μM standard DAMGO
Method: as §1, §3

[5] = target: T3, rat δ (C6-DOR) opioid receptor (Rattus norvegicus, UniProt P33533); experiment: Radioligand binding assay, [3H]diprenorphine displacement, DOR; settings: displacement of 0.2 nM [3H]diprenorphine, C6-DOR membranes; mean ± standard error
T3 construct: expressed in transfected cells
Method: as §1, §2

[6] = target: T3, rat δ (C6-DOR) opioid receptor; experiment: Stimulation of [35S]GTPγS binding, DOR; type: biochemical; settings: for EC50 / EC50 (nm) DOR: [35S]GTPγS binding, C6-DOR membranes, mean ± standard error; for Emax / % stimulation DOR: [35S]GTPγS maximal stimulation compared with 10 μM standard DPDPE
Method: as §1, §3

[7] = [35S]GTPγS binding, CHO-KOR membranes, mean ± standard error
[8] = [35S]GTPγS maximal stimulation compared with 10 μM standard U-69,593

T2 sequence (P41145 whole entry): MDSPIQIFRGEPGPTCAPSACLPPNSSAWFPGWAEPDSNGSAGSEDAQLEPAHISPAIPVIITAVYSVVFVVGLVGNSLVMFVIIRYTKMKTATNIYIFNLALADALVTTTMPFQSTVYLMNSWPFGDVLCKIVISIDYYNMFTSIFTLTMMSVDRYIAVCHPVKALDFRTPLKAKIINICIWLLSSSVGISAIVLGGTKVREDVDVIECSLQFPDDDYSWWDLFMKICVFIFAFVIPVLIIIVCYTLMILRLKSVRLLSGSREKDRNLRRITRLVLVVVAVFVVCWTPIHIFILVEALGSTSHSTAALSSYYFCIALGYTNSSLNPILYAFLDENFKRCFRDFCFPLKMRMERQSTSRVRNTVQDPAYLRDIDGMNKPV
T1 sequence (P33535 whole entry): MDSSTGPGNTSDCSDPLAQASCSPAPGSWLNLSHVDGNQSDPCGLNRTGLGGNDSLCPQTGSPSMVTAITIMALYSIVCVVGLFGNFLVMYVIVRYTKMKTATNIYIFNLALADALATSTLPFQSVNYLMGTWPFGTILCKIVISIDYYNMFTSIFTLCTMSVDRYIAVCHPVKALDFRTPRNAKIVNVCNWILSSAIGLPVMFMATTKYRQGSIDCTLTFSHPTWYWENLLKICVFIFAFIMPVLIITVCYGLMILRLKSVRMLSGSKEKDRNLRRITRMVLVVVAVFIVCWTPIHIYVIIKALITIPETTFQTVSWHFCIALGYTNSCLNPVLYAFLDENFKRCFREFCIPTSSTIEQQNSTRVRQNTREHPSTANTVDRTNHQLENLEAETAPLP
T3 sequence (P33533 whole entry): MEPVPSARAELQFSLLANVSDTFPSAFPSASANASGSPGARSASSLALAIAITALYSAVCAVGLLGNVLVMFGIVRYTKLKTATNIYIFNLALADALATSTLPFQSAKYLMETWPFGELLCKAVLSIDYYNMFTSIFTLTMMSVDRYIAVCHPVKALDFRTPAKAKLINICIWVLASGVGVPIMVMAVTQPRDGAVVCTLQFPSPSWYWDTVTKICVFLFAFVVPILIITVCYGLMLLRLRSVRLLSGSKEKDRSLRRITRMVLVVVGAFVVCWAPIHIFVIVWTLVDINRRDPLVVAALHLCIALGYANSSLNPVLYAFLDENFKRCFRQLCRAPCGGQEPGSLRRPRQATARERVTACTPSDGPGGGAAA

Row | SMILES | Ki [1] [nM] | Ki [2] [nM] | EC50 [3, 7] [nM] | Emax [3, 8] [%] | EC50 [4] [nM] | Emax [4] [%] | Ki [5] [nM] | EC50 [6] [nM] | Emax [6] [%] | EC50 (nm) DOR [6] | % stimulation DOR [6] | EC50 (nm) KOR [3, 7] | % stimulation KOR [3, 8]
1 | Cc1cc(O)cc(C)c1C[C@H](N)C(=O)N(C)[C@@H]1CCNc2ccc(Cc3ccccc3)cc21 [Compound 1001] | 0.9 ± 0.3 | 116 ± 30 | 488 ± 142 | 3.9 ± 0.9 | 3 ± 0.31 | 80.6 ± 4.7 | 15.7 ± 3.7 | 410 ± 138 | 12.6 ± 5.5 |  |  |  | 
2 | Cc1cc(O)cc(C)c1C[C@H](N)C(=O)N(C)[C@H]1CCNc2ccc(Cc3ccccc3)cc21 [Compound 1002] | 0.8 ± 0.04 | 4.1 ± 0.4 | 7.2 ± 0.4 | 8.3 ± 2.4 | 0.463 ± 0.1 | 65.6 ± 4.4 | 8.5 ± 0.2 |  | 2.2 ± 2.2 |  |  |  | 
3 | Cc1cc(O)cc(C)c1C[C@H](N)C(=O)N[C@@H]1CCN(C)c2ccc(Cc3ccccc3)cc21 [Compound 1004] | 0.555 ± 0.242 | 27.8 ± 0.7 | 2220 ± 1020 | 44 ± 8.2 | 4 ± 0.9 | 102 ± 4.6 | 7.3 ± 3.5 | 486 | 4.3 ± 4.3 |  |  |  | 
4 | Cc1cc(O)cc(C)c1C[C@H](N)C(=O)N[C@H]1CCN(C)c2ccc(Cc3ccccc3)cc21 [Compound 1005] | 71.4 ± 18.4 | 632 ± 78 |  | 1.6 ± 1.4 | 214 ± 41 | 72.2 ± 3.6 | 138 ± 29.8 |  | 0 |  |  |  | 
5 | CCCN1CC[C@@H](NC(=O)[C@@H](N)Cc2c(C)cc(O)cc2C)c2cc(Cc3ccccc3)ccc21 [Compound 1006] | 0.34 ± 0.21 | 71.7 ± 20 | 5010 ± 1020 | 38.2 ± 3.42 | 16.4 ± 8.18 | 83.1 ± 3.25 | 1.72 ± 0.61 | 2330 ± 1030 | 39.3 ± 5.45 |  |  |  | 
6 | Cc1ccc(Cc2ccc3c(c2)[C@H](NC(=O)[C@@H](N)Cc2c(C)cc(O)cc2C)CCN3)cc1 [Compound 1007] | 0.11 | 18 |  | 14 |  | 99 | 6.1 |  | 13 |  |  |  | 
7 | Cc1ccc(Cc2ccc3c(c2)[C@@H](NC(=O)[C@@H](N)Cc2c(C)cc(O)cc2C)CCN3)cc1 [Compound 1008] | 11 | 50 |  | 0 |  | 55 | 582 |  | 3 |  |  |  | 
8 | Cc1cc(O)cc(C)c1C[C@H](N)C(=O)N[C@@H]1CCNc2ccc(Cc3ccc(F)cc3)cc21 [Compound 1009] | 0.07 | 6.6 |  | 9 |  | 69 | 4 |  | 16 |  |  |  | 
9 | Cc1cc(O)cc(C)c1C[C@H](N)C(=O)N[C@@H]1CCNc2ccc(CC3Cc4ccccc4C3C)cc21 (stereo partly shown) [Compound 1043] | 0.43 ± 0.18 | 35.7 ± 23.6 |  |  | 3.21 ± 1.25 | 92.4 ± 8.06 | 12 ± 1.17 |  |  | dns | dns |  | 
10 | COC(=O)N1CC[C@@H](NC(=O)[C@@H](N)Cc2c(C)cc(O)cc2C)c2cc(CC3Cc4ccccc4C3)ccc21 [Compound 1044] | 0.09 ± 0.02 | 10.4 |  |  | 0.4 | 82.5 | 0.26 ± 0.05 |  |  | dns | dns |  | 
11 | COc1cc2c(cc1Cc1ccccc1)[C@H](NC(=O)[C@@H](N)Cc1c(C)cc(O)cc1C)CCN2 [Compound 1045] | 0.26 ± 0.09 | 8.51 |  |  | 8.03 ± 3.15 | 98.4 ± 2.54 | 2.84 ± 0.78 | 135 | 32.5 |  |  |  | 
12 | Cc1cc(O)cc(C)c1C[C@H](N)C(=O)N[C@@H]1CCNc2cc(O)c(Cc3ccccc3)cc21 [Compound 1046] | 0.33 ± 0.14 | 15.1 |  |  | 9.86 ± 3.79 | 94.7 ± 4.19 | 2.74 ± 0.05 | 237 | 20.3 |  |  |  | 
13 | Cc1cc(O)cc(C)c1C[C@H](N)C(=O)N[C@@H]1CCNc2ccc(Cn3n[n+]([O-])c4ccc(Cl)cc43)cc21 [Compound 1047] | 0.35 ± 0.05 | 22.5 ± 8.83 |  |  | 3.45 ± 0.67 | 81.6 ± 1.48 | 3.54 ± 0.83 |  |  | dns | dns |  | 
14 | CCCc1cc(Br)cc2c1NCC[C@H]2NC(=O)[C@@H](N)Cc1c(C)cc(O)cc1C [Compound 1058] | 21.7 ± 8.06 | 208 ± 16 |  |  | 859 | 12.6 | 45.9 ± 22.6 |  |  |  |  | dns | dns
15 | Cc1cc(O)cc(C)c1C[C@H](N)C(=O)N[C@@H]1CCNc2c(C(=O)Nc3ccccc3)cc(Cc3ccccc3)cc21 [Compound 1103] | 0.36 | 29.4 |  |  | 27.3 | 62.7 | 2.17 |  |  | dns | dns |  | 
16 | Cc1cc(O)cc(C)c1C[C@H](N)C(=O)N[C@@H]1CCCc2ccc(Oc3ccccc3)cc21 [Compound 1118] | 0.33 ± 0.09 | 38.5 ± 5.39 |  |  | 43 ± 14 | 41.9 ± 8.97 | 13 ± 1.01 |  | 1.65 ± 1.65 |  |  |  | 
